# Experimental data taken from patent US8618139B2, “Oxadiazole derivatives as sphingosine 1-phosphate (S1P) receptor modulators” (Allergan, Inc., priority 2010, dated 2013).
# Target: T1, human S1P1 receptor (Homo sapiens, UniProt P21453)
# T1 construct: expressed in transfected cells; membranes used
# Assay: GTP γ35S binding assay for S1P1 activity
# Assay type: biochemical
# Conditions: activity potency from GTP γ35S binding; membranes, test compounds 0.08 to 5,000 nM, 30 min at 25° C.
# Description: Compounds were synthesized and tested for S1P1 activity using the GTP γ^35S binding assay. These compounds may be assessed for their ability to activate or block activation of the human S1P1 receptor in cells stably expressing the S1P1 receptor.
# GTP γ^35S binding was measured in the medium containing (mM) HEPES 25, pH 7.4, MgCl2 10, NaCl 100, dithitothreitol 0.5, digitonin 0.003%, 0.2 nM GTP γ^35S, and 5 μg membrane protein in a volume of 150 μl. Test compounds were included in the concentration range from 0.08 to 5,000 nM unless indicated otherwise. Membranes were incubated with 100 μM 5′-adenylylimmidodiphosphate for 30 min, and subsequently with 10 μM GDP for 10 min on ice. Drug solutions and membrane were mixed, and then reactions were initiated by adding GTP γ^35S and continued for 30 min at 25° C. Reaction mixtures were filtered over Whatman GF/B filters under vacuum, and washed three times with 3 mL of ice-cold buffer (HEPES 25, pH7.4, MgCl2 10 and NaCl 100). Filters were dried and mixed with scintillant, and counted for ^35S activity using a β-counter. Agonist-induced GTP γ^35S binding was obtained by subtracting that in the absence of agonist. Binding data were analyzed using a non-linear regression method. In case of antagonist assay, the reaction mixture contained 10 nM S1P in the presence of test antagonist at concentrations ranging from 0.08 to 5000 nM.
# T1 sequence (P21453 whole entry): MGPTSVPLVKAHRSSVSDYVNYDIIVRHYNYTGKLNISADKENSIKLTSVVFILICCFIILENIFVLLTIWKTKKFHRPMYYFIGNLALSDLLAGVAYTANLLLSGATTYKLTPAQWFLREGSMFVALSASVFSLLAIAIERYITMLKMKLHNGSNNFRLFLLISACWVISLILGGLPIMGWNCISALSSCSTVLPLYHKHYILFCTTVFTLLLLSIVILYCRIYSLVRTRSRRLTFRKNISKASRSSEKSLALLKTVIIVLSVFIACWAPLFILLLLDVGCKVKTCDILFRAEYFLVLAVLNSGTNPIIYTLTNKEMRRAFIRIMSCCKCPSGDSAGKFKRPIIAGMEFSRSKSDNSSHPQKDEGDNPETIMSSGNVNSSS
row,EC50 [µM],SMILES
1,0.336,"CNc1ncccc1-c1noc(C(Nc2ccc(C)c(C)c2)c2cccc(Cl)c2)n1 (stereo not shown) [Compound 1, 3-(5-((3-chlorophenyl)((3,4-dimethylphenyl)amino)methyl)-1,2,4-oxadiazol-3-yl)-N-methylpyridin-2-amine]"
2,0.65,"CNc1ncccc1-c1noc(C(Sc2ccc(C)c(C)c2)c2cccc(Br)c2)n1 (stereo not shown) [Compound 2, 3-(5-((3-bromophenyl)((3,4-dimethylphenyl)thio)methyl)-1,2,4-oxadiazol-3-yl)-N-methylpyridin-2-amine]"
3,0.368,"CNc1ncccc1-c1noc(C(Sc2ccc(C)c(C)c2)c2cccc(F)c2)n1 (stereo not shown) [Compound 3, 3-(5-(((3,4-dimethylphenyl)thio)(3-fluorophenyl)methyl)-1,2,4-oxadiazol-3-yl)-N-methylpyridin-2-amine]"
4,0.638,"CNc1ncccc1-c1noc(C(Sc2ccc(C)c(C)c2)c2ccc(Cl)c(Cl)c2)n1 (stereo not shown) [Compound 4, 3-(5-((3,4-dichlorophenyl)((3,4-dimethylphenyl)thio)methyl)-1,2,4-oxadiazol-3-yl)-N-methylpyridin-2-amine]"
5,0.214,"CNc1ncccc1-c1noc(C(Sc2ccc(C)c(C)c2)c2cccc(Cl)c2)n1 (stereo not shown) [Compound 5, 3-(5-((3-chlorophenyl)((3,4-dimethylphenyl)thio)methyl)-1,2,4-oxadiazol-3-yl)-N-methylpyridin-2-amine]"
6,3.01,"CNc1ncccc1-c1noc(C(SC2CCCCC2)c2cccc(C(F)(F)F)c2)n1 (stereo not shown) [Compound 6, 3-(5-((cyclohexylthio)(3-(trifluoromethyl)phenyl)methyl)-1,2,4-oxadiazol-3-yl)-N-methylpyridin-2-amine]"
7,1.54,"CNc1ncccc1-c1noc(C(Oc2ccc(C)c(C)c2)c2cccc(Cl)c2)n1 (stereo not shown) [Compound 7, 3-(5-((3-chlorophenyl)(3,4-dimethylphenoxy)methyl)-1,2,4-oxadiazol-3-yl)-N-methylpyridin-2-amine]"
8,0.716,"CNc1ncccc1-c1noc(C(Sc2ccc(C)c(C)c2)c2ccccc2Cl)n1 (stereo not shown) [Compound 9, 3-(5-((2-chlorophenyl)((3,4-dimethylphenyl)thio)methyl)-1,2,4-oxadiazol-3-yl)-N-methylpyridin-2-amine]"
9,2.39,"CNc1ncccc1-c1noc(C(Nc2ccc(C)c(C)c2)c2ccccc2)n1 (stereo not shown) [Compound 10, 3-(5-(((3,4-dimethylphenyl)amino)(phenyl)methyl)-1,2,4-oxadiazol-3-yl)-N-methylpyridin-2-amine]"
10,1.38,"CNc1ncccc1-c1noc(C(Sc2ccoc2C)c2cccc(Cl)c2)n1 (stereo not shown) [Compound 13, 3-(5-((3-chlorophenyl)((2-methylfuran-3-yl)thio)methyl)-1,2,4-oxadiazol-3-yl)-N-methylpyridin-2-amine]"
11,0.509,"CNc1ncccc1-c1noc(C(Oc2ccc(C)c(C)c2)c2ccc(Cl)cc2)n1 (stereo not shown) [Compound 15, 3-(5-((4-chlorophenyl)(3,4-dimethylphenoxy)methyl)-1,2,4-oxadiazol-3-yl)-N-methylpyridin-2-amine]"
12,2.02,"CNc1ncccc1-c1noc(C(Sc2ccc(C)cc2C)c2ccc(Cl)cc2)n1 (stereo not shown) [Compound 16, 3-(5-((4-chlorophenyl)((2,4-dimethylphenyl)thio)methyl)-1,2,4-oxadiazol-3-yl)-N-methylpyridin-2-amine]"
13,0.55,"CNc1ncccc1-c1noc(C(SC2CCCCC2)c2ccc(Cl)cc2)n1 (stereo not shown) [Compound 17, 3-(5-((4-chlorophenyl)(cyclohexylthio)methyl)-1,2,4-oxadiazol-3-yl)-N-methylpyridin-2-amine]"
14,3.19,"CNc1ncccc1-c1noc(C(Sc2ccc(C)cc2)c2ccc(Cl)cc2)n1 (stereo not shown) [Compound 18, 3-(5-((4-chlorophenyl)(p-tolylthio)methyl)-1,2,4-oxadiazol-3-yl)-N-methylpyridin-2-amine]"
15,2.56,"CNc1ncccc1-c1noc(C(Sc2ccc(OC)cc2)c2ccc(Cl)cc2)n1 (stereo not shown) [Compound 20, 3-(5-((4-chlorophenyl)((4-methoxyphenyl)thio)methyl)-1,2,4-oxadiazol-3-yl)-N-methylpyridin-2-amine]"
16,2.08,"CNc1ncccc1-c1noc(C(Oc2ccc(Cl)c(C)c2)c2ccc(Cl)cc2)n1 (stereo not shown) [Compound 21, 3-(5-((4-chloro-3-methylphenoxy)(4-chlorophenyl)methyl)-1,2,4-oxadiazol-3-yl)-N-methylpyridin-2-amine]"
17,0.241,"CNc1ncccc1-c1noc(C(Sc2ccc(C)c(C)c2)c2ccc(Cl)cc2)n1 (stereo not shown) [Compound 22, 3-(5-((4-chlorophenyl)((3,4-dimethylphenyl)thio)methyl)-1,2,4-oxadiazol-3-yl)-N-methylpyridin-2-amine]"
18,2.05,"CNc1ncccc1-c1noc(C(Oc2ccc(Cl)cc2)c2ccc(Cl)cc2)n1 (stereo not shown) [Compound 23, 3-(5-((4-chlorophenoxy)(4-chlorophenyl)methyl)-1,2,4-oxadiazol-3-yl)-N-methylpyridin-2-amine]"
19,3.12,"CNc1ncccc1-c1noc(C(Oc2ccc(C)cc2)c2ccc(Cl)cc2)n1 (stereo not shown) [Compound 26, 3-(5-((4-chlorophenyl)(p-tolyloxy)methyl)-1,2,4-oxadiazol-3-yl)-N-methylpyridin-2-amine]"
20,1.32,"CNc1ncccc1-c1noc(C(Sc2ccccc2)c2ccccc2)n1 (stereo not shown) [Compound 27, N-methyl-3-(5-(phenyl(phenylthio)methyl)-1,2,4-oxadiazol-3-yl)pyridin-2-amine]"
21,1.92,"CNc1ncccc1-c1noc(C(Oc2ccc(C)cc2)c2ccccc2Cl)n1 (stereo not shown) [Compound 30, 3-(5-((2-chlorophenyl)(p-tolyloxy)methyl)-1,2,4-oxadiazol-3-yl)-N-methylpyridin-2-amine]"
22,1.34,"CNc1ncccc1-c1noc(C(Oc2ccc(C)cc2)c2cccc(Cl)c2)n1 (stereo not shown) [Compound 32, 3-(5-((3-chlorophenyl)(p-tolyloxy)methyl)-1,2,4-oxadiazol-3-yl)-N-methylpyridin-2-amine]"
23,2.14,"CNc1ncccc1-c1noc(C(Oc2cccc(C)c2)c2ccccc2Cl)n1 (stereo not shown) [Compound 35, 3-(5-((2-chlorophenyl)(m-tolyloxy)methyll)-1,2,4-oxadiazol-3-yl)-N-methylpyridin-2-amine]"
24,2.73,"CNc1ncccc1-c1noc(C(Oc2cccc(Cl)c2)c2ccccc2Cl)n1 (stereo not shown) [Compound 36, 3-(5-((3-chlorophenoxy)(2-chlorophenyl)methyl)-1,2,4-oxadiazol-3-yl)-N-methylpyridin-2-amine]"
25,1.65,"CNc1ncccc1-c1noc(C(Oc2ccc(C)c(C)c2)c2ccccc2Cl)n1 (stereo not shown) [Compound 38, 3-(5-((2-chlorophenyl)(3,4-dimethylphenoxy)methyl)-1,2,4-oxadiazol-3-yl)-N-methylpyridin-2-amine]"
